How the values were obtained:
[1] = test system: human peripheral blood monocytes (MPs); assay: Mononuclear phagocyte migration in microchemotaxis chambers; assay type: cell-based
Method: (§1) Assessment of mononuclear phagocyte (mononuclears) and polymorphonuclear leukocyte (PMN) migration. Human peripheral blood monocytes were isolated from the blood of normal healthy volunteers (30). Blood was centrifuged on Hisopaque 1077 (Sigma, St. Louis, Mo.), the mononuclear fraction was obtained, washed twice in Earle's balanced salt solution, resuspended in RPMI 1640 containing human serum (10%; Gemini, Calabasas, Calif.), plated on tissue culture dishes and incubated at 37° C. for 1-2 hrs. Nonadherent cells were removed by washing the plate twice with balanced salt solution, and adherent cells were harvested by incubation with calcium-magnesium free buffer containing EDTA (2 mM) for 15 min at 37° C., followed by extensive washing. PMNs were prepared by centrifugation over Hisopaque 1119 as per the manufacturer's protocol (Sigma). Chemotaxis assays were performed in microchemotaxis chamber (NeuroProbe, Bethesda, Md.) containing Nucleopore polycarbonate membranes (5 μm; Nucleopore, Pleasonton, Calif.). Mononuclears or PMNs were suspended in RPMI 1640 containing fetal bovine serum (1%) and 10^4 cells were added per well to the upper chamber. The chemotactic stimulus was added to the indicated chamber, and assays were performed in quadruplicate over a 3 hr or 45 min incubation period at 37° C., with mononuclear cells or PMNs, respectively, after which non-migrating cells were removed, membranes were fixed in methanol, migrating cells were visualized with Wright's stain. Cells in nine high-power fields were counted, and the mean and standard error of the mean (SEM) were determined.
(§2) Cell migration was studied by adding MPs or PMNs (10^4 cells/well) resuspended in RPMI 1640 with fetal calf serum (1%; Gemini) to the upper wells of a microchemotaxis chamber (Neuro Probe, Bethesda, Md.) containing Nucleopore polycarbonate membranes (5 μm, Nucleopore, Pleasanton Calif.), as described (7,29-30). The chemotactic stimulus was placed in the upper or lower chamber, as indicated, and cells were allowed to migrate for 3 hrs (for MPs) or 45 min (for PMNs) at 37° C. Following removal of non-migrating cells, membranes were fixed in methanol and migrating cells were visualized with Wright's stain. Assays were performed in quadruplicate, and cells were counted in nine high-power fields in each case (mean±SEM is shown in the figures).
(§3) Migration of PMNs and MPs—Migration was studied using cells (10^4 and 10^3 cells/well form PMNs and MPs, respectively) resuspended in RPMI 1640 with fetal calf serum (1%) added to the upper wells of a microchemotaxis chamber (Neuro Probe, Bethesda, Md.) containing Nucleopore polycarbonate membranes (5 um, Nucleopor, Pleasanton, Calif.), as described (13, 22, 35). The stimulus was placed in the upper or lower chamber, as indicated, and the cells were allowed to migrate for 3 h (for MPs) or 45 min (for PMNs) at 37° C. Following removal of nonmigrating cells, membranes were fixed in methanol, and migrating cells were visualized with Wright's stain. Assays were performed in quadruplicate, and cells were counted in […] high-power fields in each case (mean±S.E. is shown in the figures).

human PMNs = assay: PMN migration in microchemotaxis chambers; assay type: cell-based; design: key to PMN MIGRATION: (+) indicates the peptide induced PMN migration; (−) indicates the peptide did not induce PMN migration above levels seen in controls which contained no chemotactic stimulus
Method: as §1, §2, §3

mouse footpad = assay: Injection of peptides and peptide-albumin conjugates into mouse footpads; assay type: in vivo; settings: unconjugated peptide
Method: Preparation and implantation of peptide-albumin conjugates into mice. Peptide-albumin conjugates (made with either […], […] or […]) (SEQ ID NO. 16) were prepared using glutaraldehyde as described (39). In brief, mouse serum albumin (50 μg) was incubated with glutaraldehyde (450 μg) and the indicated peptide (200 μg) in NaCl (0.1 M) Tris (0.05 N; pH 7.3) for 10 min at room temperature. Excess lysine was added (final concentration, 0.5 M), and the albumin-peptide conjugates were dialyzed exhaustively versus phosphate-buffered saline. BALB/c mice (6-12 weeks) each received an injection into the footpad (7,40-41) of 0.05 ml of a solution of either (i) albumin-peptide conjugate (50 μg, total protein/footpad), (ii) albumin treated with glutaraldehyde in an identical fashion, except that no peptide was present (50 μg, total protein/footpad), (iii) native albumin (50 μg total protein/footpad), or (iv) buffer alone. At the indicated time, animals were sacrificed by humane euthanasia, footpads were harvested, fixed in buffered formalin (10%), decalcified, and embedded in paraffin. Sections were stained with hematoxylin and eosin.

human MPs = assay: Radioligand binding of 125I-[…] to MPs; settings: excess / increasing concentrations of unlabelled competitor
Method: Radioligand binding studies were performed on human MPs plated in 96-well plates (5-6×10^4 cells/well). Cells were washed twice with Hanks balanced salt solution, and then Dulbecco's Modified Eagle Medium containing HEPES (25 mM; pH 7.4), penicillin/streptomycin (50 U/ml; 50 μg/ml), and bovine serum albumin-fatty acid free (0.5%; Sigma) were added (0.1 ml/well). Cultures were incubated at 4° C. for 2 hrs with ^125I-[…] alone or in the presence of unlabelled peptide/protein. Each well was washed four times over a period of 20 sec, and cell-associated radioactivity was eluted by an acidic buffer (HCl, 0.1 M, pH 2; NaCl, 0.1 M) at 4° C. for 5 min. During the elution period, there was no detachment of cells from the growth substrate. The conditions for incubation and washing used in the binding studies shown in FIG. 3 (2 hrs at 4° C.) were […] to allow binding of ^125I-[…] to reach an apparent maximum, even at the lowest tracer concentrations, and to remove unbound material by washing quickly so that <10% of the cell-bound radioactivity dissociated.

“ASRLDLRIGRIVTAKY [residues #6-20 from EMAP II, Cys to Arg substitution at position #15, and a C-terminal Tyr]” was tested, and the “Induction of MP (mononuclear cell) migration (chemotaxis)” value ([1]; microchemotaxis chamber, 3 hrs at 37° C.) was “induce chemotaxis”, the “MP migration at 100 pM peptide relative to FMLP at 1 μM” value ([1]; peptide 100 pM) was “similar” and the “Dose above which PMN migration reached an apparent maximum” value (human PMNs; data not shown) was > 1 nM. For the same sequence, the EC50 (human PMNs; four experiments, PMNs from three individuals, read-out: Peptide concentration for half-maximal PMN migration) was 0.15 to 0.3 nM, the “Induction of PMN migration (chemotaxis)” value (human PMNs; microchemotaxis chamber, 45 min at 37° C.) was “led to induction of migration” and the “PMN migration at 100 pM peptide relative to fMLP at 1 μM” value (human PMNs; peptide 100 pM) was “roughly comparable”. For the same sequence, the “Concentration range over which effect on PMN migration was dose-dependent” value (human PMNs; peptide added to the lower well) was 10 to 10000 pM, the “PMN MIGRATION” value (human PMNs; peptides 100 pM in each case) was “+” and the “Inflammatory response to free peptide injected subcutaneously into mice” value (mouse footpad) was “at most a transient inflammatory response”. The “Competition for binding of 125I-RIGRIVTAKY to MPs by unlabelled peptide/protein” value (human MPs) was “inhibition”.

Source: patent publication US6734168B2, “Endothelial monocyte activating polypeptide II: a mediator which activates host response” (The Trustees of Columbia University in the City of New York, priority 1993, dated 2004)
